Data set [1] deals with isolated mouse liver mitochondria. Nature of the data set: Oxygen consumption rate of isolated mitochondria (Seahorse XF24). The format is biochemical. From the text:
(§1) A thorough evaluation of toxicity is critical for advancing TR001 to in vivo studies. […] To more thoroughly examine mitochondrial toxicity, we analyzed oxygen consumption rates (OCRs) using the Seahorse XF24 extracellular flux analyzer. This allowed us to assess the effects of TR001 on mitochondrial respiration and ATP synthesis. […] Consequently respiratory control ratios (i.e., the ratios between ADP-stimulated and basal respiration) were not affected across the concentrations tested (FIG. 5B). Complex III inhibitor antimycin A shuts down the electron transport chain at the bc1 complex and was used to account for oxygen leak.
(§2) Measurement of respiration. Mitochondrial oxygen consumption of isolated mitochondria or HeLa cell monolayer was assessed with the Seahorse Extracellular Flux Analyzer XF24 (Seahorse Bioscience, Billerica, MA, USA). Isolated mouse liver mitochondria: Mitochondrial assay solution contained 220 mm mannitol, 70 mm sucrose, 25 mm MOPS-Tris, 10 mm Pi-Tris, 5 mm MgCl2, 1 mm EGTA-Tris, 0.2% fatty acid free BSA, 5 mm succinate and 2 μm rotenone, pH 7.4. Mitochondria (5 μg, suspended in 50 μL mitochondrial assay solution) were added to each well of an XF24 cell culture microplate, centrifuged at 2000 g for 20 min at 4° C. and then supplemented with 450 μL of mitochondrial assay solution containing 4 mm ADP to initiate the experiments.

In data set [2] the test system is col6a1 zebrafish morphants. Nature of the data set: OCR measurement on entire col6a1 morphant zebrafish embryos. It counts as in vivo. The settings on record: 48 hpf, 10 μm. From the text:
To test the effects of both TR001 and 63 on the respiration of col6a1 morphant embryos, we measured the OCR on entire embryos at 48 hpf. […] Moreover, TR001 at a concentration of 10 μm was able to fully restore the maximal respiratory capacity (FIG. 6D, left panel, open diamonds, p<0.001) of col6a1 morphants.
Morpholino antisense injection and treatment. Knock-down of col6a1 gene expression was obtained with a previously published morpholino ^[25] with sequence GAGAGCGGAAGACGAACCTTCATTC (SEQ ID NO: 2; GeneTools, Inc.). A control morpholino with no sequence homology in the zebrafish genome was used in parallel (CCTCTTACCTCAGTTACAATTTATA; SEQ ID NO: 3). Zebrafish eggs from wild-type matings were injected at the 1-2 cell stage with approximately 10 nL of 0.1 mm morpholino solution (corresponding to 4 ng of morpholino) using a WPI pneumatic PicoPump PV820 injector (World Precision Instruments, Inc.). […]
OCR measurement. […] First, basal respiration was measured. Second, respiration due to ATP synthase was measured after addition of 10 μm oligomycin (Merck Millipore-495455). Third, maximal respiration capacity was measured by adding 2 μm of the uncoupler carbonyl cyanide-4-(trifluoromethoxy)phenylhydrazone (FCCP, Sigma-Aldrich, C2920). […]

Data set [3] has as its system mtPTP. Kind of data set: Ca2+ retention capacity (CRC) of isolated mouse liver mitochondria. It counts as biochemical. Here is the method: CRC determines the Ca^2+ threshold required for mtPTP activation; inhibitors of mtPTP are expected to increase the Ca^2+ threshold required for mtPTP induction. Extramitochondrial Ca^2+ changes are detected using the membrane-impermeant Ca^2+ indicator, Calcium Green-5N.
Isolation of mitochondria. C57BL6/N mouse liver mitochondria were prepared from 2 to 6 month old male mice by standard differential centrifugation. Mice fed ad libitum were euthanized with CO2 followed cervical dislocation, their livers were existed and placed in a glass beaker containing ice-cold isolation buffer (IB: 0.25 m sucrose, 10 mm Tris-HCl, 0.1 mm EGTA-Tris, pH 7.4) supplemented with fatty acid free bovine serum albumin. Livers were then cut into small pieces with scissors, rinsed with ice-cold IB, and passed through a pre-chilled Potter homogenizer with Teflon pestle. The homogenate (˜30 mL per liver) was transferred to centrifuge tubes, and unbroken cells and nuclei were removed by centrifugation at 700 g for 10 min at 4° C. The supernatant containing mitochondria and other organelles was transferred to new tubes and centrifuged at 6000 g for 10 min at 4° C. The resulting supernatant was discarded and mitochondrial pellet was carefully suspended in ice-cold IB and spun at 9500 g for 5 min at 4° C. The pellet was suspended in IB to give a protein concentration of ˜60-80 mg/mL and stored on ice. Experiments were started immediately and completed within 5 h. Protein concentration was determined by the Biuret method.
Assessment of Ca^2+ retention capacity (CRC). CRC of isolated mouse liver mitochondria was assessed as follows: First, 0.1 mL of SAB were dispensed to a 96-well black assay plate in the presence of 2% DMSO (control wells) or varying concentrations of test compounds, in 1:2 serial dilutions. Then, 0.1 mL of 0.5 mg/mL mitochondria in SAB devoid of respiratory substrates, but supplemented with 1 μm Calcium Green-5N were added to all wells of the assay plate. A train of 10 μm CaCl2 pulses was added at 2 min intervals, and fluorescence intensity (ex/em 485/535 nm) was read on Tecan Infinite F200 plate reader.

The test system of data set [4] is HeLa cells. Nature of the data set: Oxygen consumption rate of HeLa cell monolayers (Seahorse XF24). It counts as cell-based. The settings on record: ~2 h treatment.
Excerpt: as §1
as §2, with “experiments. […]” for “experiments.”

For `Cc1ccc(Cl)cc1NC(=O)c1cn(-c2ccc(F)c(O)c2)nn1` [TR001, N-(5-chloro-2-methylphenyl)-1-(4-fluoro-3-hydroxyphenyl)-1H-1,2,3-triazole-4-carboxamide], the “rates of oxygen consumption (ADP stimulation, oligomycin, FCCP)” value in data set [1] is recorded as “no effect”. Also, in data set [1] (across the concentrations tested), the respiratory control ratios entry is “not affected”. Also, the “maximal respiratory capacity (OCR) of col6a1 morphants” value in data set [2] is given as “fully restore”. Moreover, the “CRC effect in combination with CsA” value in data set [3] (TR001 in combination with 2 μm CsA) is on record as “additive with CsA”. Besides, the “CRC/CRC0 at 1.25 μM” value in data set [3] (compound treated CRC to DMSO treated CRC0 ratio, 1.25 μM, average ± SEM, n = 3-25) turned out to be 6.8 ± 0.4. In addition, the “maximal efficacy as defined by CRC/CRC0 ratio” value in data set [3] (mouse liver mitochondria) is listed as about 10. For the same compound, the “mitochondrial dysfunction (OCR) in intact cells” value in data set [4] was “did not cause mitochondrial dysfunction”.

The values are drawn from patent US12398110B2, “Second generation inhibitors of mitochondrial permeability transition pore with improved plasma stability” (Oregon Health & Science University, priority 2019, dated 2025).
